Results taken from patent US8063220B2, “Sulfonyl-quinoline derivatives” (Richter Gedeon Nyrt., priority 2007, dated 2011).

Assays:
[1] = biological target: T1, rat mGluR5 (Rattus norvegicus, UniProt P31424); assay: MGluR5 receptor binding test ([3H]-M-MPEP displacement, rat cerebro-cortical membrane preparation); settings: rat mGluR5, [3H]-M-MPEP 2 nM; read-out: mGlu5 Ki
T1 construct: Rat cerebro-cortical membrane preparation was used; from tissue; host or cells: rat cerebral cortex (membrane preparation)
Description: Rat cerebro-cortical membrane preparation was used to determine the binding characteristics of reference compounds and novel compounds to the rat mGluR5. The A18 cell line expressing hmGluR5a (purchased from Euroscreen) was used to determine binding characteristics of the chemical compounds to the human mGluR5a receptor. [3H]-M-MPEP (2 nM) was used as radioligand. The nonspecific binding was determined in the presence of 10 μM M-MPEP.

[2] = biological target: T2, rat mGluR1 (Rattus norvegicus, UniProt P23385); assay: MGluR1 receptor binding test ([3H]R214127 displacement, rat cerebellar membrane preparation); settings: rat mGluR1, [3H]R214127 3 nM; read-out: mGlu1 Ki
T2 construct: rat cerebellar membrane preparation was used; from tissue; host or cells: rat cerebellum (membrane preparation)
Procedure, shortened: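 Rat cerebellar membranes with 3 nM [3H]R214127; nonspecific binding defined by 1 μM R214127. IC50 from displacement curves by nonlinear regression, converted to Ki by Cheng–Prusoff.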

T1 sequence (P31424 21-1203): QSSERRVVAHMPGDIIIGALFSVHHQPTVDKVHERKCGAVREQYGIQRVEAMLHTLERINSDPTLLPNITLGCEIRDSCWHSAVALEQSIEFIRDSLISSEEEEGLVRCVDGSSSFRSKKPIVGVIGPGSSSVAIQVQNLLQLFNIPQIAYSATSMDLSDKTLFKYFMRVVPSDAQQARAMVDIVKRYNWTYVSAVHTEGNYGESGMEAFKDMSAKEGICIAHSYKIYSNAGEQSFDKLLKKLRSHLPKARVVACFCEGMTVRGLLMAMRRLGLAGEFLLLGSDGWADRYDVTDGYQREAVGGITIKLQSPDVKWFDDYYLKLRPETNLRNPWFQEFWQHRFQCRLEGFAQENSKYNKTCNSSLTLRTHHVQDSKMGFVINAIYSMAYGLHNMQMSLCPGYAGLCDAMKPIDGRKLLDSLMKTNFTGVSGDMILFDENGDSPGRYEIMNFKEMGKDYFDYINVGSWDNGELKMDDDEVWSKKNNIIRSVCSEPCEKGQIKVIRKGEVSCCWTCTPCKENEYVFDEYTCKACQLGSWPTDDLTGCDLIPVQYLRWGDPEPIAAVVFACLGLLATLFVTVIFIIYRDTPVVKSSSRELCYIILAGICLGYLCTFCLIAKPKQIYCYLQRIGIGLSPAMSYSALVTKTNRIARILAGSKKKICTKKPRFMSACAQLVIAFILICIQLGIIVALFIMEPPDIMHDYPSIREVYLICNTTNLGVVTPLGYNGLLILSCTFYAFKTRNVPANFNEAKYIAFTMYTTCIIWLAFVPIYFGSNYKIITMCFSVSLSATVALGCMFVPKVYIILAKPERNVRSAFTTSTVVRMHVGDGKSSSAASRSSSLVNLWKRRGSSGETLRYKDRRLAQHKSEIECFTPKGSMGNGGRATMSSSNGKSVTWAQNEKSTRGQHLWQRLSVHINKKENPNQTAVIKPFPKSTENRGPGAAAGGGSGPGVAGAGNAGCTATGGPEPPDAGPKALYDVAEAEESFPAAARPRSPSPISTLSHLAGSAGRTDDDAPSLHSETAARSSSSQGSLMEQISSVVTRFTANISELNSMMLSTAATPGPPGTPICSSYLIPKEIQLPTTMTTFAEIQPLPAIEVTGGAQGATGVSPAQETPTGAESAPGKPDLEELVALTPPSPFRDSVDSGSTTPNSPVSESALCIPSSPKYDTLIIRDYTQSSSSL
T2 sequence (P23385 19-1199): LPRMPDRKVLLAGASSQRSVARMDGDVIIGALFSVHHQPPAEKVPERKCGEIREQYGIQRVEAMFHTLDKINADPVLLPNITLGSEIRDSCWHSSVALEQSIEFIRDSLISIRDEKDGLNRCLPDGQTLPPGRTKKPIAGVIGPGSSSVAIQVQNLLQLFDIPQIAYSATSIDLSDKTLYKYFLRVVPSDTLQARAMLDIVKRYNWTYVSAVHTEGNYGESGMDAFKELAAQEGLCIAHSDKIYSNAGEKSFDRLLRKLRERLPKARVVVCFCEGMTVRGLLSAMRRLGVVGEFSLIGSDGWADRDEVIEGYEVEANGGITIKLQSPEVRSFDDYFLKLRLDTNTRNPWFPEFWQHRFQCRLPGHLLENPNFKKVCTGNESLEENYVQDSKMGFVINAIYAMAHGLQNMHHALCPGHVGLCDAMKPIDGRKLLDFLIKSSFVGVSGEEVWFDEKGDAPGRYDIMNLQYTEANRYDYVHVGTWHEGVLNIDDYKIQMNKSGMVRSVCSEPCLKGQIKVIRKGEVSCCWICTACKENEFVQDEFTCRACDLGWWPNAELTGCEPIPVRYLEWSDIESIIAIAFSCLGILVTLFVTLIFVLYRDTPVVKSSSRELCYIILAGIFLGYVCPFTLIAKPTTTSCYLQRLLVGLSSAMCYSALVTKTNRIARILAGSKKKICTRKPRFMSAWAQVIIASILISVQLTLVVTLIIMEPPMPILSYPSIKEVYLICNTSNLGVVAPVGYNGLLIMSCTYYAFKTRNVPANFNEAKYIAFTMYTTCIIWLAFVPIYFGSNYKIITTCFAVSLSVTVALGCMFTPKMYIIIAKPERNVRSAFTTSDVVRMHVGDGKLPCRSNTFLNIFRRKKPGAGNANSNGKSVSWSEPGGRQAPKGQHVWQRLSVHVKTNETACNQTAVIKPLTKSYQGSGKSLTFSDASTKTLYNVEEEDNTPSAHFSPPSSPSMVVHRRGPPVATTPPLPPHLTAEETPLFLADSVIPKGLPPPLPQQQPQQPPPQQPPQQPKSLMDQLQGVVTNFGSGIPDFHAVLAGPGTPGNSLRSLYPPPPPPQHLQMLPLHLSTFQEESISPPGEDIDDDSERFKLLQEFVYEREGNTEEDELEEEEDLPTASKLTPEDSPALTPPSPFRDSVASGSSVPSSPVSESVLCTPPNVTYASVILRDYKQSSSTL

| SMILES | Ki [1] | Ki [2] |
| --- | --- | --- |
| O=S(=O)(c1ccc(F)c(F)c1)c1cnc2ccc(F)cc2c1-c1ccc(F)cc1 [Compound 152] | < 200 nM | 200 to 500 nM |
| COc1ccc(-c2c(S(=O)(=O)c3ccc(C)c(C)c3)cnc3cc(F)ccc23)cc1 [Compound 77] | < 200 nM | > 500 nM |
| O=S(=O)(c1ccc(F)c(F)c1)c1cnc2c(F)c(Cl)ccc2c1-c1cccc(F)c1 [Compound 196] | < 200 nM | > 500 nM |
| O=S(=O)(c1ccc(F)cc1)c1cnc2c(F)cccc2c1-c1ccc(Cl)cc1 [Compound 21] | < 200 nM | 200 to 500 nM |
| N#Cc1cccc(S(=O)(=O)c2cnc3cc(F)ccc3c2-c2cc(F)cc(F)c2)c1 [Compound 245] | < 200 nM | 200 to 500 nM |
| N#Cc1cc(S(=O)(=O)c2cnc3cc(F)ccc3c2-c2ccc(F)cc2)ccc1F [Compound 275] | < 200 nM | > 500 nM |
| O=S(=O)(c1ccc(Cl)cc1)c1cnc2ccc(F)cc2c1-c1ccc(F)cc1 [Compound 31] | > 500 nM | > 500 nM |
| O=S(=O)(c1cc(F)cc(F)c1)c1cnc2cc(Cl)ccc2c1-c1ccc(F)cc1 [Compound 181] | < 200 nM | > 500 nM |
| N#Cc1cc(S(=O)(=O)c2cnc3cc(F)ccc3c2-c2cccc(Cl)c2)ccc1F [Compound 235] | < 200 nM | > 500 nM |
| O=S(=O)(c1ccc(F)cc1)c1cnc2c(F)cccc2c1-c1cccc(Cl)c1 [Compound 20] | < 200 nM | < 200 nM |
| COc1ccc(-c2c(S(=O)(=O)c3ccc(OC)cc3)cnc3c(F)cccc23)cc1 [Compound 56] | < 200 nM | > 500 nM |
| N#Cc1cccc(S(=O)(=O)c2cnc3c(F)c(Cl)ccc3c2-c2cccc(Cl)c2)c1 [Compound 253] | < 200 nM | 200 to 500 nM |
| O=S(=O)(c1ccc(F)c(F)c1)c1cnc2cc(Cl)ccc2c1-c1ccc(F)cc1 [Compound 182] | < 200 nM | > 500 nM |
| COc1ccc(S(=O)(=O)c2cnc3ccc(F)cc3c2-c2cccc(F)c2)cc1 [Compound 30] | 200 to 500 nM | > 500 nM |
| O=S(=O)(c1cc(Cl)cc(Cl)c1)c1cnc2cc(Cl)ccc2c1-c1ccccc1F [Compound 255] | < 200 nM | 200 to 500 nM |
| Cc1ccc(S(=O)(=O)c2cnc3cc(F)ccc3c2-c2ccc(F)cc2)cc1F [Compound 86] | < 200 nM | > 500 nM |
| COc1ccc(-c2c(S(=O)(=O)c3ccc(OC)cc3)cnc3ccc(F)cc23)cc1 [Compound 163] | < 200 nM | > 500 nM |
| N#Cc1cccc(S(=O)(=O)c2cnc3c(F)cccc3c2-c2cccc(F)c2)c1 [Compound 215] | < 200 nM | > 500 nM |
| O=S(=O)(c1ccc(F)c(Cl)c1)c1cnc2c(F)c(Cl)ccc2c1-c1ccc(Cl)cc1 [Compound 197] | < 200 nM | > 500 nM |
| N#Cc1cccc(S(=O)(=O)c2cnc3c(F)cccc3c2-c2ccc(Cl)cc2)c1 [Compound 225] | < 200 nM | > 500 nM |
| O=S(=O)(c1cc(Cl)cc(Cl)c1)c1cnc2ccc(F)cc2c1-c1cccc(F)c1 [Compound 124] | < 200 nM | 200 to 500 nM |
| COc1ccc(-c2c(S(=O)(=O)c3ccc(C)c(F)c3)cnc3ccc(F)cc23)cc1 [Compound 129] | < 200 nM | > 500 nM |
| O=S(=O)(c1cc(F)cc(F)c1)c1cnc2cc(F)ccc2c1-c1cccc(F)c1 [Compound 88] | < 200 nM | 200 to 500 nM |
| O=S(=O)(c1cccc(F)c1)c1cnc2c(F)cccc2c1-c1ccc(Cl)cc1 [Compound 59] | < 200 nM | 200 to 500 nM |

Continued, values first:

| Ki [1] | Ki [2] | SMILES |
| --- | --- | --- |
| < 200 nM | 200 to 500 nM | COc1ccc(-c2c(S(=O)(=O)c3cccc(C#N)c3)cnc3cc(F)ccc23)cc1 [Compound 92] |
| < 200 nM | > 500 nM | N#Cc1cc(F)cc(S(=O)(=O)c2cnc3c(N)cccc3c2-c2cccc(F)c2)c1 [Compound 279] |
| < 200 nM | > 500 nM | N#Cc1cc(F)cc(S(=O)(=O)c2cnc3cc(F)ccc3c2-c2cccc(Cl)c2)c1 [Compound 244] |
| 200 to 500 nM | > 500 nM | O=S(=O)(c1ccc(F)cc1)c1cnc2ccc(F)cc2c1-c1cccc(F)c1 [Compound 26] |
| > 500 nM | > 500 nM | O=S(=O)(c1ccc(F)cc1)c1cnc2ccc(Cl)cc2c1-c1ccc(Cl)cc1 [Compound 2] |
| < 200 nM | 200 to 500 nM | O=S(=O)(c1ccc(F)c(F)c1)c1cnc2cc(F)ccc2c1-c1cccc(F)c1 [Compound 98] |
| < 200 nM | 200 to 500 nM | O=S(=O)(c1cc(Cl)cc(Cl)c1)c1cnc2cc(F)ccc2c1-c1cccc(F)c1 [Compound 80] |
| < 200 nM | > 500 nM | O=S(=O)(c1cc(Cl)cc(Cl)c1)c1cnc2c(F)cccc2c1-c1ccc(F)c(F)c1 [Compound 220] |
| < 200 nM | > 500 nM | O=S(=O)(c1cc(F)cc(F)c1)c1cnc2cc(Cl)ccc2c1-c1ccc(Cl)cc1 [Compound 174] |
| < 200 nM | > 500 nM | O=S(=O)(c1ccc(F)c(Cl)c1)c1cnc2cc(Cl)ccc2c1-c1ccc(F)cc1 [Compound 183] |
| 200 to 500 nM | > 500 nM | COc1cccc(-c2c(S(=O)(=O)c3ccc(OC)c(Cl)c3)cnc3cc(F)ccc23)c1 [Compound 96] |
| < 200 nM | > 500 nM | O=S(=O)(c1ccc(Cl)c(F)c1)c1cnc2cc(F)c(Cl)cc2c1-c1ccc(F)cc1 [Compound 190] |
| < 200 nM | 200 to 500 nM | N#Cc1cccc(S(=O)(=O)c2cnc3cc(F)ccc3c2-c2ccc(Cl)cc2)c1 [Compound 37] |
| < 200 nM | > 500 nM | N#Cc1cc(C#N)cc(S(=O)(=O)c2cnc3cc(F)ccc3c2-c2ccc(F)c(F)c2)c1 [Compound 256] |
| < 200 nM | > 500 nM | COc1ccc(S(=O)(=O)c2cnc3c(F)cccc3c2-c2cccc(OC)c2)cc1 [Compound 57] |
| 200 to 500 nM | > 500 nM | O=S(=O)(c1ccc(Cl)cc1)c1cnc2c(Cl)cccc2c1-c1ccc(Cl)cc1 [Compound 5] |
| 200 to 500 nM | > 500 nM | COc1ccc(S(=O)(=O)c2cnc3cc(F)ccc3c2-c2cccc(F)c2)cc1 [Compound 12] |
| < 200 nM | > 500 nM | COc1ccc(-c2c(S(=O)(=O)c3ccc(F)c(F)c3)cnc3cc(F)ccc23)cc1 [Compound 99] |
| < 200 nM | > 500 nM | O=S(=O)(c1cc(F)cc(F)c1)c1cnc2c(F)cccc2c1-c1cccc(F)c1 [Compound 51] |
| < 200 nM | > 500 nM | O=S(=O)(c1ccc(F)cc1)c1cnc2cc(F)ccc2c1-c1ccc(F)cc1 [Compound 40] |
| < 200 nM | > 500 nM | N#Cc1cc(F)cc(S(=O)(=O)c2cnc3cc(Cl)ccc3c2-c2ccc(F)cc2)c1 [Compound 186, 7-chloro-3-(3-cyano-5-fluoro-benzenesulfonyl)-4-(4-fluoro-phenyl)-quinoline] |
| < 200 nM | > 500 nM | O=S(=O)(c1cc(F)cc(F)c1)c1cnc2cc(F)ccc2c1-c1ccc(F)cc1 [Compound 36] |
| < 200 nM | > 500 nM | COc1ccc(S(=O)(=O)c2cnc3cc(F)ccc3c2-c2ccc(F)cc2)cc1Cl [Compound 49] |
| > 500 nM | > 500 nM | O=S(=O)(c1ccc(F)cc1)c1cnc2ccc(F)cc2c1-c1ccc(F)cc1 [Compound 28] |
